These results are taken from ChEMBL document CHEMBL1201862, “PubChem BioAssay data set” (2004).

The nature of test [1]: P. falciparum Dd2 growth inhibitors, dose response, SYBR Green, cherry-picked samples (AID 1159567). Type of test: functional, cell-based.
Test [2] in a line: HepG2 cell cytotoxicity, dose response, cytotoxicity control, cherry-picked samples (AID 1159577). Type of test: functional, cell-based.
A further test has as its target T1, Protein skinhead-1 (Caenorhabditis elegans, UniProt P34707).
T1 sequence (P34707 whole entry): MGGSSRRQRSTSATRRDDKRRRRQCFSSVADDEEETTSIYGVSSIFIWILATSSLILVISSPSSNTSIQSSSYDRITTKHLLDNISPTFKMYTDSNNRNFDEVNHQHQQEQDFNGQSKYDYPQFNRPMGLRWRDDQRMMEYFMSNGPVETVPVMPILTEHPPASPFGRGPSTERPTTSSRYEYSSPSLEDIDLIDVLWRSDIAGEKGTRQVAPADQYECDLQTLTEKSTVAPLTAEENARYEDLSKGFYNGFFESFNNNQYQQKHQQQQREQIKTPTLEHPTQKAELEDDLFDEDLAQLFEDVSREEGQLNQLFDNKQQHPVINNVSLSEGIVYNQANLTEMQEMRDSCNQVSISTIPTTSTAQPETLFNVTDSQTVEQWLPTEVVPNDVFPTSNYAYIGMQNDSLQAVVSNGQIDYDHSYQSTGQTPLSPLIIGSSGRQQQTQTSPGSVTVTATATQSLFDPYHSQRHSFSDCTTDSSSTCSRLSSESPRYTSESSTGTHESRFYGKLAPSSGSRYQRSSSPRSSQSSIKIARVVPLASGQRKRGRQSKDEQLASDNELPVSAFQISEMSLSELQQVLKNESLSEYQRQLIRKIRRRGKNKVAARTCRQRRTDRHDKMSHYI
Type of test: functional.

The target of test [3] is T2, Long-chain-fatty-acid--AMP ligase FadD28 (Mycobacterium tuberculosis, UniProt P9WQ59).
T2 sequence (P9WQ59 whole entry): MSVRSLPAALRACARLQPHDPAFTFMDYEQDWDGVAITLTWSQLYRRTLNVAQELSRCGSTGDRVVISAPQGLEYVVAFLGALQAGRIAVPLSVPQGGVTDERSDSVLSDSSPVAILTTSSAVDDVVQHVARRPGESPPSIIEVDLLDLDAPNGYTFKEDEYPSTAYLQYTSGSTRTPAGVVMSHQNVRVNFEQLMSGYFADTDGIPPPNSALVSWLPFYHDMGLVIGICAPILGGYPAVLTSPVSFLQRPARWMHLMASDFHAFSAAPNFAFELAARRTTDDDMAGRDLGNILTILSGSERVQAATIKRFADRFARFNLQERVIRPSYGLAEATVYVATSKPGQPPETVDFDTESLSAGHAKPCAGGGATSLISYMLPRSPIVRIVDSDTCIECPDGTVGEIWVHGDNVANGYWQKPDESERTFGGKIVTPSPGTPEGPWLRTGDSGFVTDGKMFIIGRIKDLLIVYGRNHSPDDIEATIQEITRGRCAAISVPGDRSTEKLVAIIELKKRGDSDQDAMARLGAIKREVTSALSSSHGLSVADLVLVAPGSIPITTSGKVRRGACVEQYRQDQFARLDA
Briefly: Fluorescence polarization aasay to screen for inhibitors that compete for the binding of FadD28 to a bisubstrate Measured in Biochemical System Using Plate Reader - 2147-01_Inhibitor_Dose_CherryPick_Activity. It counts as functional, Mycobacterium tuberculosis H37Rv.

Test [4] deals with BJ. Description: cytotoxicity toward BJ-TERT fibroblasts, dose response, cell-based, RAS-independent, luminescence (AID 1933). It counts as functional. The conditions noted are these: Homo sapiens.
Test [5] has as its system BJ. Description: cells. Type of test: functional, cell-based. The note with it: Homo sapiens.
The subject of test [6] is BJ. Briefly: cytotoxicity toward BJ-TERT-LT-ST fibroblasts, dose response, cell-based, RAS-independent, luminescence (AID 1935).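 Further: BJ fibroblasts immortalized with TERT plus LT and ST oncogenes.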 Type of test: functional. The conditions noted are these: Homo sapiens.
A short description of test [7]: cytotoxicity toward DRD oncogenic fibroblasts, dose response, cell-based, non-viral oncogenic, luminescence (AID 1934). It counts as functional. The note with it: Homo sapiens.
Test [8] can be described thus: P. falciparum 3D7-ScDHODH growth inhibitors, dose response, SYBR Green, dry powder samples (AID 1159570).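 Further: parasite growth measured after 72 hours of compound exposure.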 Type of test: functional, cell-based.
Test [9] can be described thus: HepG2 cell cytotoxicity, dose response, cytotoxicity control, plate reader, dry powder samples (AID 1159569).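 Further: inhibitor potency with signal falling toward the positive control level.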 Type of test: functional, cell-based.
Test [10] in a line: P. falciparum Dd2 growth inhibitors, dose response, SYBR Green, dry powder samples (AID 1159566).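 Further: potency for growth inhibition with lower SYBR green DNA signal.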 It counts as functional, cell-based.
The nature of test [11]: P. falciparum ATP4 D1247Y mutant growth inhibitors, dose response, NITD609-resistant line, SYBR Green, dry powder (AID 1159571).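 Further: parasites synchronized at ring stage by sorbitol before testing.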 It counts as functional, cell-based.
A short description of test [12]: inhibitors of HIV Env-driven cell fusion, dose response, cherry-pick (AID 652057). It counts as functional, cell-based.
The nature of test [13]: ZM109 Env clade C HIV-1 fusion inhibitors, dose response, HeLa effector, CEM target cells, luciferase, cherry-pick (AID 652058). Type of test: functional, cell-based.
Test [14] is described as follows: off-target signal loss in HeLa-CEM21 co-culture – HeLa F-luc CTL cells, cherry-picked, counter-screen for HIV-1 Env fusion inhibitor project, dose response (AID 652040).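 Further: potency for signal decrease marking cytotoxic or nonspecific inhibition.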 Type of test: functional, cell-based.
The nature of test [15]: inhibitors of clade B AD8 Env fusion, dose response, cell-based, cherry-pick (AID 652062).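 Further: luciferase signal from cell-cell fusion driven by HIV-1 clade B AD8 Env; potency is for inhibitors of fusion seen as a drop in luminescence.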 Type of test: functional.
A short description of test [16]: cells. It counts as functional, cell-based.
A short description of test [17]: cells. It counts as functional, cell-based. This is another data set of the same source.
Test [18] deals with T3, Histone-lysine N-methyltransferase NSD2 (Homo sapiens, UniProt O96028).
T3 sequence (O96028 whole entry): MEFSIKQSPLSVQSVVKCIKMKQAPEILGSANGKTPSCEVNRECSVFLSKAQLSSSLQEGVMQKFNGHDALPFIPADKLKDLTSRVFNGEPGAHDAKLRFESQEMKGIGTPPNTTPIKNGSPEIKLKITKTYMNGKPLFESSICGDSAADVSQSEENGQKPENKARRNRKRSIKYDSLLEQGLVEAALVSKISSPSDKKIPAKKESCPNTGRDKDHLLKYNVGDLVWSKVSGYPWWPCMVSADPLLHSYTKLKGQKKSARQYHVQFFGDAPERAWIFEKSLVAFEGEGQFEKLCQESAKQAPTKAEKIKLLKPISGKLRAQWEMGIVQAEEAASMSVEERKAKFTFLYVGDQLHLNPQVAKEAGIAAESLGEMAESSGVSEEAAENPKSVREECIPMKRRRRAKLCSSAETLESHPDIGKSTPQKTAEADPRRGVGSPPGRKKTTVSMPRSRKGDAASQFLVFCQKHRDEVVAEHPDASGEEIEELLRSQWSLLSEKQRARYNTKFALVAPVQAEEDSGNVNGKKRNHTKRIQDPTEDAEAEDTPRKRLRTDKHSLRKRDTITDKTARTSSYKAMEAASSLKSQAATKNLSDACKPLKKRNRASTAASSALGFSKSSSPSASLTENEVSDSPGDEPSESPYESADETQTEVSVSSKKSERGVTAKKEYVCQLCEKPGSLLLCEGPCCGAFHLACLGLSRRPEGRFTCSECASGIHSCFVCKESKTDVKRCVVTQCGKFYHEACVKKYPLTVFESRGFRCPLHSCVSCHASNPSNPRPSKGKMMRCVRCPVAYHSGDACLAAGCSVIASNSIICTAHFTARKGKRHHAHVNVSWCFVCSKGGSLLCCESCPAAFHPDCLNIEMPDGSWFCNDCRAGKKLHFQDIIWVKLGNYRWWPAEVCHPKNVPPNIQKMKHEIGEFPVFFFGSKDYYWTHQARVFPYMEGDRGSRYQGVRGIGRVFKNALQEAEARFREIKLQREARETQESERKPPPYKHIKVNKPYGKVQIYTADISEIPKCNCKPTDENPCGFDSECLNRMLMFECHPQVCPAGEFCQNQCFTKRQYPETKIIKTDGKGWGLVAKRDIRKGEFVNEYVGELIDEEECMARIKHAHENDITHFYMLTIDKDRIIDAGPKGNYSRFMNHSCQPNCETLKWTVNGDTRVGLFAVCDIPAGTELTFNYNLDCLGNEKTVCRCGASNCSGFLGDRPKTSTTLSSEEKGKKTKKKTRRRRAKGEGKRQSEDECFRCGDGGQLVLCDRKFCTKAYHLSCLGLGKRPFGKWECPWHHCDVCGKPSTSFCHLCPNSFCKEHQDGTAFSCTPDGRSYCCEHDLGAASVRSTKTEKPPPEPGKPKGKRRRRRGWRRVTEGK
Type of test: biochemical.

Test [19] in a line: HEp-2 cell cytotoxicity, dose response, cytotoxicity control for RSV inhibitor project, HTS (AID 2410). It counts as functional. The conditions noted are these: human respiratory syncytial virus.
Test [20] in a line: inhibitors of intracellular T. cruzi replication, confirmation, NIH3T3 host cells, beta-gal luminescence (AID 2044).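 Further: intracellular parasites grown in NIH/3T3 mouse fibroblasts as host cells; luminescent beta-galactosidase reporter signal from transgenic T. cruzi replicating inside host cells; inhibitors lower the luminescence signal.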 It counts as functional, cell-based.
Test [21] can be described thus: cytotoxicity toward NIH3T3 fibroblasts, dose response, counter-screen, cell-based, ATP luminescence, mouse fibroblasts (AID 2010).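 Further: cells exposed to compound for about 90 hours before reading.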 Type of test: functional.

The source made the active and inactive calls.

On to `O=C(C1CCCC1)N1CC(=O)N2[C@@H](CO)[C@H](c3ccc(C#CCc4ccccc4)cc3)[C@@H]2C1`, for which the concentration at half-maximal activity (AC50) in test [1] was 2.47 µM (active); in [2], 8.92 µM (active).

Turning to `CCn1c(CSc2nnc(-c3ccncc3)n2C)nc2cc(C(=O)O)ccc21`, at Protein skinhead-1, the IC50 is > 100 µM (inactive). Also, in [3], the AC50 is > 100 µM (inactive).

With `O=C(Cn1nnc(-c2ccc3c(c2)OCO3)n1)Nc1ccccc1C(=O)O`, in test [3], the AC50 is 32 µM (inactive).

`Cc1nc(N2CCCCC2)sc1C(=O)c1ccc(Cl)c([N+](=O)[O-])c1`: the EC50 in the test on BJ [4] was 9.77 µM (active); in the test on BJ [5] it was > 150 µM (not active); with BJ [6] it was > 75 µM (inconclusive); in [7], 15.6 µM (active).

Turning to `C[C@H](CO)N1C[C@H](C)[C@@H](CN(C)S(=O)(=O)c2cccs2)Oc2ccc(NC(=O)Nc3ccc(C(F)(F)F)cc3)cc2C1=O`, the AC50 in test [3] is > 100 µM (inactive).

As to `COc1ccccc1C#Cc1ccc2c(c1)[C@@H]1NCC[C@@H]1[C@H](CO)N2`, the AC50 in test [8] is 3.15 µM (active); in test [9] it was 37.3 µM (active); in [1], 2.56 µM (active); in test [10], 1.94 µM (active); in test [2] it was > 39 µM (inactive); in [11] it was 4.53 µM (active).

For the compound `CCOc1ccc(NS(=O)(=O)c2ccc(C(=O)N(C)CCc3ccc(OC)c(OC)c3)cc2)cc1`, the AC50 in test [12] was 3.4 µM (active); in test [13], 2.58 µM (active); in test [14], 4.78 µM (active); in [15], 5.92 µM (active).

Turning to `COc1ccc2c(c1)[C@H]1[C@H](CO2)[C@H](c2ccccc2)[C@]2(C)C(=O)Nc3cc(OC)c(OC)cc3C(=O)N12`, the AC50 in test [12] is 16.1 µM (active); in test [13], 18.9 µM (active); in [14], 25.6 µM (active); in [15], 27.3 µM (active).

Regarding `COc1ccc(CN2CC3(C2)CN(C(=O)CN(C)C)[C@H](CO)c2[nH]c4cc(OC)ccc4c23)cc1`, the AC50 in test [8] was 1.6 µM (active); in test [9], 13.6 µM (active); in test [1], 2.87 µM (active); in [10] it was 1.64 µM (active); in test [2] it was 35.4 µM (active); in test [11] it was 2.51 µM (active).

For `CCOc1ccccc1N(C(=O)CNC(=O)c1ccco1)C(C(=O)NC1CCCC1)c1cccnc1` (stereo not given), the AC50 in [12] is 7.37 µM (active); in test [13], 6.15 µM (active); in test [14] it was 9.65 µM (active); in test [15] it was 3.91 µM (active).

Take `COc1ccccc1C#Cc1ccc([C@@H]2[C@@H](CO)N(C(=O)C3CCCCC3)[C@H]2C#N)cc1`: the AC50 is 1.35 µM (active) in test [8]; 16.4 µM (active) in test [9]; 2.73 µM (active) in test [1]; 0.872 µM (active) in test [10]; > 39 µM (inactive) in test [2]; 1.06 µM (active) in [11].

With `O=C(CSc1n[nH]c(-c2ccccc2)n1)NC(=O)NCc1ccco1`, the IC50 in “cells [16]” is > 29.9 µM (inactive). Besides, in “cells [17]”, the EC50 is > 29.9 µM (inactive).

Regarding `C[C@@H]1CN([C@@H](C)CO)C(=O)c2c(c3ccccc3n2C)-c2ccccc2CO[C@@H]1CN(C)Cc1ccc(Cl)c(Cl)c1`, the half-maximal activity concentration (AC50) in test [8] is 2.24 µM (active); in test [9], 22.3 µM (active); in [1], 1.34 µM (active); in [10] it was 1.11 µM (active); in [2], 22.3 µM (active); in test [11], 1.73 µM (active).

With `CCN(CC)CCNC(=O)c1cc2cc(Br)ccc2s1`, the AC50 in test [18] is > 20 µM (inactive).

As for `COc1ccc2c3c(n(C)c2c1)[C@H](CO)NCC31CCN(S(=O)(=O)c2cccc(F)c2)CC1`, the AC50 in test [1] is 4.66 µM (active); in [2], > 39 µM (inactive).

Take `O=C(Nc1ccc(Cl)cc1)N[C@@H]1c2c(ccc3ccccc23)OC[C@@H]1CO`: in test [3], the AC50 is 85.5 µM (active).

For the compound `COc1cc(-c2nc3oc4ccccc4c(=O)c3c(=O)n2Cc2ccco2)cc(OC)c1OC`, the CC50 in [19] is > 50 µM (active). For the same compound, the concentration at half-maximal activity (AC50) was 2.38 µM (active) in test [12], 0.584 µM (active) in test [13], 5.7 µM (active) in [14] and 4.1 µM (active) in test [15].

Take `COc1cc(/C=N/NC(N)=S)ccc1OCc1ccc(C)cc1`: the figures for the EC50 in [20] and in test [21] were 0.566 µM (active) and 8.5 µM (active), respectively. Further, in test [3], the AC50 is 69.9 µM (active).
